Measured values as given in patent US20250066286A1, “COMPOSITIONS OF (Z)-ENDOXIFEN AND METHODS OF ENRICHMENT THEREOF” (Atossa Therapeutics, Inc., priority 2022, published 2025).

Key:
[1] = Slurries of (Z)-endoxifen in solvent mixtures (XRPD); format: physicochemical; conditions: for Output Crystallinity [high/low/SC/oriented]: 50° C., 1 d
Description: Slurry experiments were performed with solvents with 50° C. (Z)-endoxifen was suspended in 500 μl of the solvent mixture to achieve the concentrations of 40 mg/ml or 100 mg/ml. The resultant solutions were stored at 50° C. for one day. For solvent mixtures which included acetone, the slurry was instead stored at 40° C. The suspensions were then recovered and filtered with a nylon filter (0.22 μm) during centrifugation at 4000 rpm for 3 minutes, and the collected solid (Z)-endoxifen was analyzed by XRPD as shown in FIG. 85-FIG. 91 and FIG. 1-FIG. 5.

[2] = Stability of (Z)-Endoxifen in acetone (HPLC peak table over time); format: physicochemical; conditions: acetone at reflux (56° C.); for HPLC peak RT 4.37, RRT 0.28 / Z-form, RT 15.13, RRT 1.00: in % (unit assumed)

For `CC/C(=C(\c1ccc(O)cc1)c1ccc(OCCNC)cc1)c1ccccc1` [(Z)-endoxifen, (Z)-4-(1-(4-(2-(methylamino)ethoxy)phenyl)-2-phenylbut-1-enyl)phenol], the “Output Crystallinity [high/low/SC/oriented]” value ([1]; SLHT-1D-H2O/THF(40 mg/ml), FIG. 3: water/tetrahydrofuran 95/5, 40 mg/mL) was “low”, the “Output Crystallinity [high/low/SC/oriented]” value ([1]; SLHT-1D-HEP/TOL(100 mg/ml), FIG. 89: heptane/toluene 50/50, 100 mg/mL) was “low” and the “Polymorphic form recovered (XRPD)” value ([1]; all solvent mixture slurries, 40 or 100 mg/ml, 50° C. (40° C. with acetone), one day) was “Form I with varying degrees of purity”. For the same molecule, the E-form, RT 14.58, RRT 0.96 ([2]; 3 hr) was 0.54%, the HPLC peak RT 13.84, RRT 0.91 ([2]; 3 hr) was 0.05% and the HPLC peak RT 20.32, RRT 1.34 ([2]; 3 hr) was 0.37%. For the same molecule, the HPLC peak RT 20.51, RRT 1.35 ([2]; 3 hr) was 0.06%, the HPLC peak RT 21.68, RRT 1.43 ([2]; 3 hr) was 0.16% and the HPLC peak RT 22.88, RRT 1.51 ([2]; 3 hr) was 0.13%. The HPLC peak RT 27.15, RRT 1.79 ([2]; 3 hr) was 0.03%, the HPLC peak RT 27.21, RRT 1.80 ([2]; 3 hr) was 0.05% and the HPLC peak RT 27.45, RRT 1.81 ([2]; 3 hr) was 0.24%. The HPLC peak RT 27.88, RRT 1.84 ([2]; 3 hr) was 0.04%, the “HPLC peak RT 4.37, RRT 0.28” value ([2]; 3 hr) was 0.96 and the “Z-form, RT 15.13, RRT 1.00” value ([2]; 3 hr) was 96.67. For the same molecule, the E-form, RT 14.58, RRT 0.96 ([2]; 19 hr) was 1.01%, the HPLC peak RT 13.84, RRT 0.91 ([2]; 19 hr) was 0.04% and the HPLC peak RT 20.32, RRT 1.34 ([2]; 19 hr) was 0.12%. The HPLC peak RT 20.51, RRT 1.35 ([2]; 19 hr) was 0.04%, the HPLC peak RT 21.68, RRT 1.43 ([2]; 19 hr) was 0.14% and the HPLC peak RT 22.88, RRT 1.51 ([2]; 19 hr) was 0.09%. For the same molecule, the HPLC peak RT 27.15, RRT 1.79 ([2]; 19 hr) was 0.02%, the HPLC peak RT 27.21, RRT 1.80 ([2]; 19 hr) was 0.04% and the HPLC peak RT 27.45, RRT 1.81 ([2]; 19 hr) was 0.22%. For the same molecule, the HPLC peak RT 27.88, RRT 1.84 ([2]; 19 hr) was 0.04%, the “HPLC peak RT 4.37, RRT 0.28” value ([2]; 19 hr) was 5.74 and the “Z-form, RT 15.13, RRT 1.00” value ([2]; 19 hr) was 91.92. It also gave an E-form, RT 14.58, RRT 0.96 ([2]; 27 hr) of 1.53%, an HPLC peak RT 13.84, RRT 0.91 ([2]; 27 hr) of 0.04% and an HPLC peak RT 20.32, RRT 1.34 ([2]; 27 hr) of 0.09%. For the same molecule, the HPLC peak RT 20.51, RRT 1.35 ([2]; 27 hr) was 0.1%, the HPLC peak RT 21.68, RRT 1.43 ([2]; 27 hr) was 0.15% and the HPLC peak RT 22.88, RRT 1.51 ([2]; 27 hr) was 0.06%. For the same molecule, the HPLC peak RT 27.15, RRT 1.79 ([2]; 27 hr) was 0.03%, the HPLC peak RT 27.21, RRT 1.80 ([2]; 27 hr) was 0.04% and the HPLC peak RT 27.45, RRT 1.81 ([2]; 27 hr) was 0.22%. The HPLC peak RT 27.88, RRT 1.84 ([2]; 27 hr) was 0.04%, the “HPLC peak RT 4.37, RRT 0.28” value ([2]; 27 hr) was 7.93 and the “Z-form, RT 15.13, RRT 1.00” value ([2]; 27 hr) was 89.05. For the same molecule, the E-form, RT 14.58, RRT 0.96 ([2]; 43 hr) was 5.33%, the HPLC peak RT 13.84, RRT 0.91 ([2]; 43 hr) was 0.04% and the HPLC peak RT 20.32, RRT 1.34 ([2]; 43 hr) was 0.13%. For the same molecule, the HPLC peak RT 20.51, RRT 1.35 ([2]; 43 hr) was 0.05%, the HPLC peak RT 21.68, RRT 1.43 ([2]; 43 hr) was 0.13% and the HPLC peak RT 22.88, RRT 1.51 ([2]; 43 hr) was 0.05%. For the same molecule, the HPLC peak RT 27.15, RRT 1.79 ([2]; 43 hr) was 0.04%, the HPLC peak RT 27.21, RRT 1.80 ([2]; 43 hr) was 0.05% and the HPLC peak RT 27.45, RRT 1.81 ([2]; 43 hr) was 0.15%. For the same molecule, the HPLC peak RT 27.88, RRT 1.84 ([2]; 43 hr) was 0.04%, the “HPLC peak RT 4.37, RRT 0.28” value ([2]; 43 hr) was 12.64 and the “Z-form, RT 15.13, RRT 1.00” value ([2]; 43 hr) was 80.36. For the same molecule, the E-form, RT 14.58, RRT 0.96 ([2]; T0) was 0.3%, the HPLC peak RT 13.84, RRT 0.91 ([2]; T0) was 0.04% and the HPLC peak RT 20.32, RRT 1.34 ([2]; T0) was 0.04%. The HPLC peak RT 20.51, RRT 1.35 ([2]; T0) was 0.12%, the HPLC peak RT 21.68, RRT 1.43 ([2]; T0) was 0.15% and the HPLC peak RT 22.88, RRT 1.51 ([2]; T0) was 0.03%. For the same molecule, the HPLC peak RT 27.15, RRT 1.79 ([2]; T0) was 0.03%, the HPLC peak RT 27.21, RRT 1.80 ([2]; T0) was 0.05% and the HPLC peak RT 27.45, RRT 1.81 ([2]; T0) was 0.17%. The HPLC peak RT 27.88, RRT 1.84 ([2]; T0) was 0.04% and the “HPLC peak RT 4.37, RRT 0.28” value ([2]; T0) was 0.05.
